Experiments:
[1] = Plasma insulin level before and after treatment in mice; assay type: in vivo
Method: The 4-week-old male ICR mice were purchased from the Animal Center of the College of Medicine, National Taiwan University (Taipei, Taiwan) with delicate humane care. This animal study was conducted by following the University ethical guidelines and the ‘Guide for the Care and Use of Laboratory Animals’ published by the US National Institutes of Health (NIH publication no. 85-23, revised 1996). The animal experiments were approved by the Institutional Animal Care and Use Committee (IACUC) of the National Taiwan University (IACUC No. 20110073). Animals were housed in a room at the constant temperature, 22±1° C., with 12 hours light and dark cycles.
(§1) After three days of acclimatization, the mice had free access to a standard rodent chow (normal mice), a standard rodent chow after single 250 mgkg^−1 streptozotocin (STZ) intraperitoneal injection (TIDM mice), and a fat-rich chow diet and fructose-sweetened water (T2DM mice) for 4 weeks. The induction of Type 1 DM was assessed and confirmed when the mice had plasma glucose levels ≧350 mgdL^−1, accompanied with polyuria, hyperphagia and decreased body weight. The induction Type 2 DM in the mice was assessed by measuring fasting plasma glucose levels and confirmed when plasma glucose level was ≧150 mgdL^−1 after the 4-week induction. The animals were assigned randomly into three groups, with seven animals in each group. In group I, the mice were treated with vehicle, 2% DMSO in normal saline, as the negative control. In group II, the mice were intraperitoneally treated with borapetoside A (0.1-10 mgkg^−1). In […], the mice received intraperitoneally metformin (300 mgkg^−1; Sigma Chemical Co., St. Louis, Mo., U.S.A.) or insulin (0.5 IUkg^−1; Insulin Actrapid® HM; Novo Nordisk, Denmark). In the acute study, mice under anesthesia received a single intraperitoneal administration of borapetoside A, negative control, or positive control. In the subacute study, mice received intraperitoneal administrations of borapetoside A, vehicle, or insulin twice a day for seven days.
(§2) Blood samples were collected from the orbital vascular plexus of the mice under anesthesia. Blood samples were then centrifuged at 13000 rpm for 5 min, and the plasma samples were collected and kept on ice prior to the assay. The plasma glucose concentration was measured by Glucose Kit Reagent (Biosystems S.A., Barcelona, Spain) following the manufacturer's instructions, and the insulin levels were estimated using mouse insulin ELISA kit (Mercodia AB, Uppsala, Sweden).

[2] = Intraperitoneal glucose tolerance test; assay type: in vivo, mice; conditions: metformin-treated group, compared to the vehicle group, normal and type 2 DM mice
Method: as §1, §2
The mice were maintained under anesthesia throughout the procedure. Glucose (2.0 gkg^−1) was administered intraperitoneally. Blood samples were collected from the orbital vascular plexus at 0, 30, 60, 120 min. The concentrations of the plasma glucose were measured, and the values of AUC were calculated accordingly.

IL-6-treated C2C12 cells = experiment: Glycogen content assay in IL-6-induced insulin resistant C2C12 cells; assay type: cell-based; conditions: IL-6-treated C2C12, 1 nM insulin, 30 minutes
Method: The C2C12 skeletal muscle cells were cultured in Dulbecco's modified Eagle's medium (DMEM; Gibco/Invitrogen, Carlsbad, Calif.), and the human hepatocellular carcinoma cell line, Hl-ep3B, was cultured in Roswell Park Memorial Institute medium 1640 (RPMI 1640 medium; Gibco/Invitrogen, Carlsbad, Calif.). Cells were cultured at 37° C. in the humidified incubator supplied with 5% CO2. Culture mediums were supplemented with 4.5 mgmL^−1 glucose, penicillin 100 IUmL^−1, streptomycin 100 μgmL^−1 and 10% fetal bovine serum (Gibco/Invitrogen, Carlsbad, Calif.). Only C2C12 cells were then switched to 2% horse serum for 3 days after reaching the 70% confluence. Myotubes formation was achieved after 4 days of incubation, and the cells were used for subsequent experiments. Culture mediums were replaced by serum free DMEM or RPMI for 24 h before experiments (see e.g., procedure described in Sultan et al., 2006).
C2C12 and Hep3B cells were treated with 1 nM insulin, 100 μM metformin, and the assigned concentration of borapetoside A for 30 minutes. To develop the insulin resistance state of cells, C2C12 cells were incubated with IL-6 at 20 ngmL^−1 for 1 hour. Later, the cells were treated with 1 nM insulin, 100 μM metformin, and the assigned concentration of borapetoside A for 30 minutes. After the assigned treatment, cells were washed twice with phosphate buffered saline (PBS). Glycogen content was measured as previously described, with some modifications (see e.g., Savage et al., 2008). The protein concentrations of the cell lysates were determined by using Pierce BCA Protein Assay Kit (Thermo-Scientific, Rockford, Ill.). The glycogen content of each sample was normalized by total protein.

soleus muscle = experiment: Glycogen content in soleus muscle in vivo; set-up: species or system mice; conditions: mice with type 2 DM, insulin 0.5 IUkg^−1 i.p.
Method: (§3) The mice were injected with borapetoside A (10 mgkg^−1, interperitoneal) for 60 minutes or insulin (0.5 IUkg^−1, interperitoneal) for 30 minutes. After the treatment, the anesthetic mice were sacrificed by cervical dislocation to collect the soleus muscle and liver. About 40 mg of each sample was dissolved in 1 mol/L KOH at 75° C. for 30 min. The dissolved homogenate was neutralized by glacial acetic acid and then incubated overnight in acetate buffer (0.3 mol/L sodium acetate, pH 4.8) containing amyloglucosidase (Sigma, St. Louis, Mo.). The mixture was then neutralized with 1 mol/L NaOH to stop the reaction. The glycogen contents in the tissue samples were determined as μg of glucose per mg of tissue (wet weight).

liver = experiment: Glycogen content in liver in vivo; set-up: species or system mice; conditions: mice with type 2 DM, insulin 0.5 IUkg^−1 i.p.
Method: as §3

CN(C)C(=N)N=C(N)N [Metformin, metformin, reference compound]
Plasma insulin ([1]; T1DM mice, metformin 300 mgkg^−1, after-treatment): 22.7 ± 0.3 pmol/L | Plasma insulin ([1]; T1DM mice, metformin 300 mgkg^−1, before-treatment): 22.4 ± 0.4 pmol/L | Plasma insulin ([1]; T2DM mice, metformin 300 mgkg^−1, after-treatment): 182.0 ± 27.7 pmol/L | Plasma insulin ([1]; T2DM mice, metformin 300 mgkg^−1, before-treatment): 148.1 ± 15.2 pmol/L | Plasma insulin ([1]; normal mice, metformin 300 mgkg^−1, after-treatment): 72 ± 3.1 pmol/L | Plasma insulin ([1]; normal mice, metformin 300 mgkg^−1, before-treatment): 66.6 ± 1.3 pmol/L | increase of plasma glucose level at 30 min [2]: significantly suppressed

insulin: short-acting insulin, Insulin Actrapid HM (Novo Nordisk), positive control 0.5 IUkg^−1 [reference compound]
glycogen content (IL-6-treated C2C12 cells): not increased | glycogen synthesis in soleus muscle (soleus muscle): failed to enhance | glycogen synthesis in liver (liver): failed to enhance

— US20150265644A1, “THERAPEUTIC METHODS AND COMPOSITIONS FOR TREATING DIABETES UTILIZING DITERPENOID COMPOUNDS” (Orient Europharma Co., Ltd., priority 2014, published 2015)
